Results from US20240034729A9, “HETEROCYCLIC COMPOUND, INTERMEDIATE, PREPARATION METHOD THEREFOR AND APPLICATION THEREOF” (WUHAN LL SCIENCE AND TECHNOLOGY DEVELOPMENT CO., LTD., priority 2018, published 2024).
Read-outs that look alike come from different tables or passages of the source.

What was measured:
[1] = In vitro metabolic stability, guinea pig liver microsome; format: in vitro ADME; conditions: liver microsomes, 1 mg/mL liver microsome protein, 37° C., NA = essentially not metabolized, read-out: T1/2 in guinea pig liver microsome
Experimental: (§1) The in vitro metabolic stability of the compounds disclosed herein was determined through incubation of liver microsomes of various species. A proper amount of test compound was added into a liver microsome reaction system (1 mg/mL liver microsome protein, 25 U/mL glucose-6 phosphate dehydrogenase, 1 mM NADP, 6 mM D-glucose 6-phosphate and 5 mM MgCl2), and then the mixture was incubated in a water bath kettle at 37° C. to start the reaction. At each time point, 100 μL of the reaction mixture was added into a centrifuge tube containing 400 μL of internal standard working solution (containing a 200 ng/mL solution of dexamethasone, diclofenac, tolbutamide and labetalol in acetonitrile) precooled at 0° C. so as to terminate the reaction, and the mixture was then centrifuged at 10,000 g for 10 min at 4° C. The supernatant was collected for LC-MS assay so as to obtain the values of in vitro metabolic half-life of the test compounds in liver microsomes of various species.

[2] = target: hP2X3 (human purinergic P2X receptor subtype 3) (Homo sapiens (Human), UniProt P56373); assay: FLIPR calcium assay, hP2X3 expressed in HEK293 cells; format: cell-based; conditions: read-out: P2X3 IC50
[3] = In vitro cytotoxicity assay, CCK-8 method; format: cell-based; conditions: human, HepG2 cells
Experimental: In vitro cytotoxicity assay for the compounds disclosed herein was performed in HepG2 cells using the CCK-8 method. HepG2 cells (Beina Bio) in the logarithmic growth phase were collected, the concentration of cell suspension was adjusted, and then the cells were plated on a 96-well cell culture plate at 50,000 cells/well. The cells were then incubated overnight in a cell incubator of 5% […] at 37° C., and after 80-90% cell confluence was achieved, test compounds or vehicle (DMSO) at various concentration gradients were added after medium change. The plate was incubated in a cell incubator of 5% […] at 37° C. for 48 h. After the treatment, the medium in the plate was discarded. The plate was washed twice with PBS, added with CCK-8 working solution (Beyotime) at 100 μL per well, and then incubated at 37° C. for 1.5 h away from light. Absorbance at OD450nm was measured for each well on a microplate reader, and CC50 value of each compound was analyzed and calculated.

[4] = In vitro metabolic stability, human liver microsome; format: in vitro ADME; conditions: liver microsomes, 1 mg/mL liver microsome protein, 37° C., NA = essentially not metabolized, read-out: T1/2 in human liver microsome
Experimental: as §1, with “A proper amount of test compound was added into a liver microsome reaction system (1 mg/mL liver microsome protein, 25 U/mL glucose-6 phosphate dehydrogenase, 1 mM NADP, 6 mM D-glucose 6-phosphate and 5 mM MgCl2), and then the mixture was incubated in a water bath kettle at 37° C. to start the reaction.” left out

[5] = In vitro metabolic stability, rat liver microsome; format: in vitro ADME; conditions: liver microsomes, 1 mg/mL liver microsome protein, 37° C., NA = essentially not metabolized, read-out: T1/2 in rat liver microsome
Experimental: as §1, with “A proper amount of test compound was added into a liver microsome reaction system (1 mg/mL liver microsome protein, 25 U/mL glucose-6 phosphate dehydrogenase, 1 mM NADP, 6 mM D-glucose 6-phosphate and 5 mM MgCl2), and then the mixture was incubated in a water bath kettle at 37° C. to start the reaction.” left out

[6] = target: hP2X2/3 (heterodimeric receptors formed by human purinergic P2X receptors subtype 2 and subtype 3) (Homo sapiens (Human), UniProt P56373+Q9UBL9); assay: FLIPR calcium assay, hP2X2/3 expressed in HEK293 cells (P2X2/3 receptor selectivity); format: cell-based; conditions: for IC50: HEK293 cells expressing hP2X2/3, agonist BZ-ATP 5 μM, unit inferred
Chain of hP2X2/3 (heterodimeric receptors formed by human purinergic P2X receptors subtype 2 and subtype 3) (P56373 whole entry): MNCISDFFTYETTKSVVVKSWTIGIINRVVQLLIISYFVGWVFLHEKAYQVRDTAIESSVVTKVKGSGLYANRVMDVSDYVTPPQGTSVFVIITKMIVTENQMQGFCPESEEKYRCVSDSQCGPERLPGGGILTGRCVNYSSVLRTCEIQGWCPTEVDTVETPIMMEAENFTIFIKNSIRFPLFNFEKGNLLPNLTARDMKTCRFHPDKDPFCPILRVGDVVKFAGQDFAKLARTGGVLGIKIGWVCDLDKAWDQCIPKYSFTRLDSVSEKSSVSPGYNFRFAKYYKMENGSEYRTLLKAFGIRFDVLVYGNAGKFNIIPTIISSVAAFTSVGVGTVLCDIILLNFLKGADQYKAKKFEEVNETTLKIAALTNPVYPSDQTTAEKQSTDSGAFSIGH
Chain of hP2X2/3 (heterodimeric receptors formed by human purinergic P2X receptors subtype 2 and subtype 3) (Q9UBL9 whole entry): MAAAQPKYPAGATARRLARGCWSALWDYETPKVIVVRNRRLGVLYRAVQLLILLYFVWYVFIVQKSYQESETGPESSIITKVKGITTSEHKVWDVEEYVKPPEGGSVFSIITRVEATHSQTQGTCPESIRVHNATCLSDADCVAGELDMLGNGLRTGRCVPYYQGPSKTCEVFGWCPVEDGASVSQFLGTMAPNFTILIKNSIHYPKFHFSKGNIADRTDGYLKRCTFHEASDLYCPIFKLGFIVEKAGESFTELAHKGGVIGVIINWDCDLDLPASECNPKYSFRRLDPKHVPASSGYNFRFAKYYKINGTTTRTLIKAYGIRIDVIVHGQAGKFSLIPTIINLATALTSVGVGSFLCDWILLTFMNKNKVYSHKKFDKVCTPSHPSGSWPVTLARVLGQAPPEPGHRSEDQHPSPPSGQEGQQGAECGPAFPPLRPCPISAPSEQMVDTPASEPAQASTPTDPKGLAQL

Chain of hP2X3 (human purinergic P2X receptor subtype 3) (P56373 whole entry): as the sequence (P56373 whole entry) above

Structure (SMILES) | half-life [1] | IC50 ([2]; HEK293 cells expressing hP2X3, agonist BZ-ATP 2.5 μM, class symbols) | CC50 at 48 h [3] | half-life [4] | half-life [5] | IC50 [2] | Folds of selectivity [6] | IC50 [6]
COC(=O)N1CCO[C@@H](Cc2c(-c3c(F)cc(N4C(=O)CCC4=O)cc3F)nc3cc(C)ccn23)C1 [Compound 26, methyl (S)-2-((2-(4-(2,5-dioxopyrrolidin-1-yl)-2,6-difluorophenyl)-7-methylimidazo[1,2-a]pyridin-3-yl)methyl)morpholine-4-carboxylate] | 128 min | 50 to 200 nM | > 100 µM | 253 min | 80.9 min |  |  | 
COC(=O)N1CCO[C@@H](Cc2c(-c3c(F)cc(-n4ccnc4)cc3F)nc3cc(C)ccn23)C1 [Compound 5, methyl (S)-2-((2-(2,6-difluoro-4-(1H-imidazol-1-yl)phenyl)-7-methylimidazo[1,2-a]pyridin-3-yl)methyl)morpholine-4-carboxylate] | 47.6 min |  | 72 µM | 649 min | 37.3 min |  |  | 
CC(=O)N1CCO[C@@H](Cc2c(-c3c(F)cc(S(N)(=O)=O)cc3F)nc3cc(C)ccn23)C1 [Compound 173, (S)-4-(3-((4-acetylmorpholin-2-yl)methyl)-7-methylimidazo[1,2-a]pyridin-2-yl)-3,5-difluorobenzenesulfonamide] | 647 min |  | > 200 µM |  | 101 min | 1.8 nM | 18811 | 33.9 µM
COC(=O)N1CCO[C@@H](Cc2c(-c3c(F)cc(S(N)(=O)=O)cc3Cl)nc3cc(C)ccn23)C1 [Compound 177, methyl (S)-2-((2-(2-chloro-6-fluoro-4-sulfamoylphenyl)-7-methylimidazo[1,2-a]pyridin-3-yl)methyl)morpholine-4-carboxylate] |  |  |  | 325 min |  | 1.1 nM |  | 
COC(=O)N1CCO[C@@H](Cc2c(-c3c(F)cc(S(C)(=O)=O)cc3F)nc3cc(C)ccn23)C1 [Compound 175, methyl (S)-2-((2-(2,6-difluoro-4-(methylsulfonyl)phenyl)-7-methylimidazo[1,2-a]pyridin-3-yl)methyl)morpholine-4-carboxylate] | > 30 min |  |  | > 30 min | > 30 min | > 10000 nM |  | 
CC(=O)N1CCO[C@@H](Cc2c(-c3c(F)cc(-c4ncco4)cc3F)nc3cc(C)ccn23)C1 [Compound 163, (S)-1-(2-((2-(2,6-difluoro-4-(oxazol-2-yl)phenyl)-7-methylimidazo[1,2-a]pyridin-3-yl)methyl)morpholino)ethan-1-one] |  |  | > 100 µM |  |  |  |  | 
COC(=O)N1CCO[C@@H](Cc2c(-c3c(F)cc(-c4cccn4C)cc3F)nc3cc(C)ccn23)C1 [Compound 13, methyl (S)-2-((2-(2,6-difluoro-4-(1-methyl-1H-pyrrol-2-yl)phenyl)-7-methylimidazo[1,2-a]pyridin-3-yl)methyl)morpholine-4-carboxylate] | 2.25 min |  | 66.5 µM | 61.5 min | 2.24 min |  |  | 
CC(=O)N1CCO[C@@H](Cc2c(-c3c(F)cc(-c4ncco4)cc3F)nc3cc(Cl)ccn23)C1 [Compound 159, (S)-1-(2-((7-chloro-2-(2,6-difluoro-4-(oxazol-2-yl)phenyl)imidazo[1,2-a]pyridin-3-yl)methyl)morpholino)ethan-1-one] |  |  | > 100 µM |  |  |  |  | 
COC(=O)N1CCO[C@@H](Cc2c(-c3ccc(S(N)(=O)=O)cc3Cl)nc3cc(Cl)ccn23)C1 [Compound 178, methyl (S)-2-((7-chloro-2-(2-chloro-4-sulfamoylphenyl)imidazo[1,2-a]pyridin-3-yl)methyl)morpholine-4-carboxylate] |  |  |  | 1230 min |  | 0.1 nM |  | 
CC(=O)Nc1cc(F)c(-c2nc3cc(C)ccn3c2C[C@H]2CN(C(C)=O)CCO2)c(F)c1 [Compound 167, (S)—N-(4-(3-((4-acetylmorpholin-2-yl)methyl)-7-methylimidazo[1,2-a]pyridin-2-yl)-3,5-difluorophenyl)acetamide] |  |  | > 100 µM |  |  |  |  | 
COC(=O)N1CCO[C@@H](Cc2c(-c3c(F)cc(-c4ncco4)cc3F)nc3cc(C)ccn23)C1 [Compound 10, methyl (S)-2-((2-(2,6-difluoro-4-(oxazol-2-yl)phenyl)-7-methylimidazo[1,2-a]pyridin-3-yl)methyl)morpholine-4-carboxylate] | 13.5 min |  | 15.8 µM | 223 min | 30.8 min |  |  | 
CC(=O)N1CCO[C@@H](Cc2c(-c3c(F)cc(S(N)(=O)=O)cc3F)nc3cc(Cl)ccn23)C1 [Compound 174, (S)-4-(3-((4-acetylmorpholin-2-yl)methyl)-7-chloroimidazo[1,2-a]pyridin-2-yl)-3,5-difluorobenzenesulfonamide] | 1110 min |  | > 200 µM |  | 398 min | 1.6 nM |  | 
COC(=O)N1CCO[C@@H](Cc2c(-c3c(F)cc(-c4ccco4)cc3F)nc3cc(C)ccn23)C1 [Compound 11, methyl (S)-2-((2-(2,6-difluoro-4-(furan-2-yl)phenyl)-7-methylimidazo[1,2-a]pyridin-3-yl)methyl)morpholine-4-carboxylate] | 4.27 min |  | 79.4 µM | 151 min | 5.65 min |  |  | 
CC(=O)N1CCO[C@@H](Cc2c(-c3c(F)cc(-n4ccnc4)cc3F)nc3cc(Cl)ccn23)C1 [Compound 158, (S)-1-(2-((7-chloro-2-(2,6-difluoro-4-(1H-imidazol-1-yl)phenyl)imidazo[1,2-a]pyridin-3-yl)methyl)morpholino)ethan-1-one] |  |  | > 100 µM |  |  | < 10 nM | A (key: A: folds of selectivity >1000; B: 200< folds of selectivity ≤1000; C: folds of selectivity ≤200) | > 60 µM
COC(=O)N1CCO[C@@H](Cc2c(-c3ccc(S(N)(=O)=O)cc3C(F)(F)F)nc3cc(C)ccn23)C1 [Compound 189, methyl (S)-2-((7-methyl-2-(4-sulfamoyl-2-(trifluoromethyl)phenyl)imidazo[1,2-a]pyridin-3-yl)methyl)morpholine-4-carboxylate] |  |  |  | 145 min |  | 10 nM |  | 
CC(=O)N1CCO[C@@H](Cc2c(-c3c(F)cc(-n4cccn4)cc3F)nc3cc(Cl)ccn23)C1 [Compound 160, (S)-1-(2-((7-chloro-2-(2,6-difluoro-4-(1H-pyrazol-1-yl)phenyl)imidazo[1,2-a]pyridin-3-yl)methyl)morpholino)ethan-1-one] |  |  | > 100 µM |  |  |  |  | 
COC(=O)N1CCO[C@@H](Cc2c(-c3c(F)cc(-c4cccs4)cc3F)nc3cc(C)ccn23)C1 [Compound 12, methyl (S)-2-((2-(2,6-difluoro-4-(thiophen-2-yl)phenyl)-7-methylimidazo[1,2-a]pyridin-3-yl)methyl)morpholine-4-carboxylate] | 7.56 min |  | 52.7 µM | 91.9 min | 7.78 min |  |  | 
CC(=O)N1CCO[C@@H](Cc2c(-c3c(F)cc(-c4nnc[nH]4)cc3F)nc3cc(Cl)ccn23)C1 [Compound 166] |  |  | > 100 µM |  |  | < 10 nM | A (key: A: folds of selectivity >1000; B: 200< folds of selectivity ≤1000; C: folds of selectivity ≤200) | > 60 µM
COC(=O)N1CCO[C@@H](Cc2c(-c3c(F)cc(NC(=O)CCC(=O)O)cc3F)nc3cc(C)ccn23)C1 [Compound 25, (S)-4-((3,5-difluoro-4-(3-((4-(methoxycarbonyl)morpholin-2-yl)methyl)-7-methylimidazo[1,2-a]pyridin-2-yl)-phenyl)-amino)-4-oxobutanoic acid] |  |  | > 100 µM | 298 min | 228 min | < 10 nM | A (key: A: folds of selectivity >1000; B: 200< folds of selectivity ≤1000; C: folds of selectivity ≤200) | > 60 µM
